# Counter-ions that a name gives are not always drawn.
# What was measured:
# BRD4-BD1 = BRD4-BD1 (Homo sapiens (Human), UniProt O60885); experiment: BRD4 AlphaScreen assay, BRD4-BD1; format: binding; details: biotin-labeled tetra-acetylated histone H4 peptide, 75 min, room temperature, read-out: BRD4 BD-1 enzyme IC50
# Method: (§1) BRD4-BD1 and BRD4-BD2 assays were conducted in white 384-well polystyrene plate in a final volume of 20 μL for BD1 and 40 μL for BD2. Inhibitors were first serially diluted in DMSO and added to the plate wells before the addition of other reaction components. The final concentration of DMSO in the assay was 1.25% (BD1) and 0.83% (BD2). The assays were carried out at room temperature for 75 min. in the assay buffer (50 mM HEPES, pH 7.4, 100 mM NaCl, 0.05% CHAPS, 0.01% BSA), containing 50 nM Biotin-labeled tetra-acetylated histone H4 peptide (H4Ac4), 3.8 nM (BRD4-BD1, BPS Bioscience #31040) or 20 nM (BRD4-BD2, BPS Bioscience #31041). The reaction followed by the addition of 20 μL of assay buffer supplemented with Streptavidin donor beads (PerkinElmer 6760002) and GSH Acceptor beads (PerkinElmer-AL109C) at 4 μg/mL under reduced light. After plate sealing, the plate was incubated in the dark at room temperature for 75 min. before reading on a PHERAstar FS plate reader (BMG Labtech). IC50 determination was performed by fitting the curve of percent control activity versus the log of the inhibitor concentration using the GraphPad Prism 5.0 software.
# BRD4-BD2 = BRD4-BD2 (Homo sapiens (Human), UniProt O60885); experiment: BRD4 AlphaScreen assay, BRD4-BD2; format: binding; details: biotin-labeled tetra-acetylated histone H4 peptide, 75 min, room temperature, read-out: BRD4 BD-2 enzyme IC50
# Method: as §1
Structure (SMILES),IC50 (BRD4-BD1),IC50 (BRD4-BD2)
"Cc1cc2c(ccc3nnc(C)n32)n1Cc1ccc2ccccc2n1 [Example 21, 1,7-dimethyl-6-(quinolin-2-ylmethyl)-6H-pyrrolo[2,3-e][1,2,4]triazolo[4,3-a]pyridine]",0.1 to 1 µM,≤ 0.1 µM
"COc1cccc(Cn2c(C)cc3c2ccc2nnc(C)n23)c1 [Example 22, 6-(3-methoxybenzyl)-1,7-dimethyl-6H-pyrrolo[2,3-e][1,2,4]triazolo[4,3-a]pyridine]",0.1 to 1 µM,≤ 0.1 µM
"Cc1cc2c(ccc3nnc(C)n32)n1Cc1cccc(O)c1 [Example 23, 3-[(1,7-dimethyl-6H-pyrrolo[2,3-e][1,2,4]triazolo[4,3-a]pyridin-6-yl)methyl]phenol]",≤ 0.1 µM,≤ 0.1 µM
"CC(=O)Nc1cccc(Cn2c(C)cc3c2ccc2nnc(C)n23)c1 [Example 25, N-{3-[(1,7-dimethyl-6H-pyrrolo[2,3-e][1,2,4]triazolo[4,3-a]pyridin-6-yl)methyl]phenyl}acetamide Trifluoroacetate Salt]",0.1 to 1 µM,≤ 0.1 µM
"Cc1cc2c(ccc3nnc(C)n32)n1Cc1cccc(CO)c1 [Example 26, {3-[(1,7-dimethyl-6H-pyrrolo[2,3-e][1,2,4]triazolo[4,3-a]pyridin-6-yl)methyl]phenyl}methanol Trifluoroacetate Salt]",≤ 0.1 µM,≤ 0.1 µM
"Cc1cc2c(ccc3nnc(C)n32)n1Cc1cccc(CN2CC(O)C2)c1 [Example 27, 1-(3-((1,7-dimethyl-6H-pyrrolo[2,3-e][1,2,4]triazolo[4,3-a]pyridin-6-yl)methyl)benzyl)azetidin-3-ol bis-trifluoroacetate Salt]",≤ 0.1 µM,≤ 0.1 µM
"Cc1cc2c(ccc3nnc(C)n32)n1Cc1cccc(CN2CCC2)c1 [Example 28, 6-[3-(azetidin-1-ylmethyl)benzyl]-1,7-dimethyl-6H-pyrrolo[2,3-e][1,2,4]triazolo[4,3-a]pyridine]",≤ 0.1 µM,≤ 0.1 µM
"Cc1cc2c(ccc3nnc(C)n32)n1Cc1cccc(C(N)=O)c1 [Example 30, 3-((1,7-dimethyl-6H-pyrrolo[2,3-e][1,2,4]triazolo[4,3-a]pyridin-6-yl)methyl)benzamide Trifluoroacetate Salt]",0.1 to 1 µM,≤ 0.1 µM
"Cc1cc2c(ccc3nnc(C)n32)n1Cc1cccc(C(=O)NO)c1 [Example 31, 3-[(1,7-dimethyl-6H-pyrrolo[2,3-e][1,2,4]triazolo[4,3-a]pyridin-6-yl)methyl]-N-hydroxybenzamide Trifluoroacetate Salt]",0.1 to 1 µM,≤ 0.1 µM
"CNC(=O)c1cccc(Cn2c(C)cc3c2ccc2nnc(C)n23)c1 [Example 32, 3-[(1,7-dimethyl-6H-pyrrolo[2,3-e][1,2,4]triazolo[4,3-a]pyridin-6-yl)methyl]-N-methylbenzamide Trifluoroacetate Salt]",0.1 to 1 µM,≤ 0.1 µM
"CCNC(=O)c1cccc(Cn2c(C)cc3c2ccc2nnc(C)n23)c1 [Example 33, 3-[(1,7-dimethyl-6H-pyrrolo[2,3-e][1,2,4]triazolo[4,3-a]pyridin-6-yl)methyl]-N-ethylbenzamide Trifluoroacetate Salt]",0.1 to 1 µM,≤ 0.1 µM
"COc1ccc(Cn2c(C)cc3c2ccc2nnc(C)n23)cc1 [Example 34, 6-(4-methoxybenzyl)-1,7-dimethyl-6H-pyrrolo[2,3-e][1,2,4]triazolo[4,3-a]pyridine]",≤ 0.1 µM,≤ 0.1 µM
"Cc1cc2c(ccc3nnc(C)n32)n1Cc1ccc(O)cc1 [Example 35, 4-[(1,7-dimethyl-6H-pyrrolo[2,3-e][1,2,4]triazolo[4,3-a]pyridin-6-yl)methyl]phenol]",≤ 0.1 µM,≤ 0.1 µM
"Cc1cc2c(ccc3nnc(C)n32)n1Cc1cccc(CNCCO)c1 [Example 36, 2-({3-[(1,7-dimethyl-6H-pyrrolo[2,3-e][1,2,4]triazolo[4,3-a]pyridin-6-yl)methyl]benzyl}amino)ethanol]",≤ 0.1 µM,≤ 0.1 µM

# — patent US9777003B2, “Tricyclic heterocycles as bet protein inhibitors” (Incyte Corporation, priority 2013, dated 2017)
